In US20050148495A1, “Methods and materials including for treating acne” (priority 2003, published 2005):
Values after ≈ are worked out from the molar mass of the structure shown. Like-named read-outs stand apart in the source and are kept apart here. Non-standard residues stand in square brackets, D forms with d. Residues, ends and D or L forms follow the SMILES beside them. d1Nal = N[C@H](Cc1cccc2ccccc12)C(=O)O

Key:
Staphylococcus aureus = details: for MBC: agent alone
E. coli = details: for MBC: agent alone
[1] = 0.3 mg/kg intravenous
[2] = rat, 0.3 mg/kg intravenous
Protocol: Whole body autoradiography studies measured the concentration of tritium in tissues at several time points following dosing. From these concentrations, area under the concentration vs. time curve (AUC) was calculated as a measure of overall exposure (see Table 25).

Compound: CC1(C)S[C@@H]2[C@H](NC(=O)[C@H](N)c3ccccc3)C(=O)N2[C@H]1C(=O)O [Ampicillin]
- MBC (antibiotic alone) (Staphylococcus aureus; Staphylococcus aureus 342U-116): 8 µg/mL (≈ 22.9 µM)
- MBC (antibiotic alone) (E. coli; E. coli 4104 LF): 32 µg/mL (≈ 91.6 µM)

Compound: CO/N=C(\C(=O)N[C@@H]1C(=O)N2C(C(=O)O)=C(COC(N)=O)CS[C@H]12)c1ccco1 [Cefuroxime]
- MBC (antibiotic alone) (E. coli; E. coli 4104 LF): 8 µg/mL (≈ 18.9 µM)

Compound: CC(=O)OCC1=C(C(=O)O)N2C(=O)[C@@H](NC(=O)Cc3cccs3)[C@H]2SC1 [Cephalothin]
- MBC (antibiotic alone) (Staphylococcus aureus; Staphylococcus aureus 342U-116): 1 µg/mL (≈ 2.52 µM)

Compound: CC1COc2c(N3CCN(C)CC3)c(F)cc3c(=O)c(C(=O)O)cn1c23 (stereo not shown) [Ofloxacin]
- MBC (antibiotic alone) (Staphylococcus aureus; Staphylococcus aureus 342U-116): 1 µg/mL (≈ 2.77 µM)
- MBC (antibiotic alone) (E. coli; E. coli 4104 LF): ≦0.125 μg/mL

Compound: CC(C)C[C@@H](NC(=O)[C@H](N)CCCCN)C(=O)N[C@H](Cc1ccccc1)C(=O)N[C@H](CCCNC(=N)N)C(=O)N[C@H](Cc1cccc2ccccc12)C(=O)N[C@H](CCC(N)=O)C(=O)N[C@H](C)C(=O)N[C@H](CCCCN)C(=O)N[C@H](Cc1cccc2ccccc12)C(N)=O [[^3H]-labeled XMP.629] (H-[dK][dL][dF][dR][d1Nal][dQ][dA][dK][d1Nal]-NH2)
- Central compartment volume of distribution [1]: ~0.12 L/kg
- alpha half-life [1]: ~2 min
- beta half-life [1]: ~45 min
- clearance [1]: ~6 mL/min/kg
- plasma concentrations by 24 hours following dosing [1]: approximately 0.005 μg/mL
- terminal half-life [1]: ~480 min
- average half-life ([1]; three compartment model): approximately 0.24 hours
- AUC0-tlast ([2]; Adrenal): 64.98 μg equivalents * hr/g
- AUC0-tlast ([2]; Blood): 0.24 μg equivalents * hr/g
- AUC0-tlast ([2]; Bone marrow): 82.65 μg equivalents * hr/g
- AUC0-tlast ([2]; Cervical lymph node): 86.07 μg equivalents * hr/g
- AUC0-tlast ([2]; Eye uveal tract): 1.14 μg equivalents * hr/g
- AUC0-tlast ([2]; Kidney): 20.20 μg equivalents * hr/g
- AUC0-tlast ([2]; Liver): 191.86 μg equivalents * hr/g
- AUC0-tlast ([2]; Lung): 29.25 μg equivalents * hr/g
- AUC0-tlast ([2]; Popliteal lymph node): 165.30 μg equivalents * hr/g
- AUC0-tlast ([2]; Renal medulla high): 19.83 μg equivalents * hr/g
- AUC0-tlast ([2]; Spleen): 60.94 μg equivalents * hr/g
- AUC0-tlast ([2]; Thyroid): 23.38 μg equivalents * hr/g

Compound: Neomycin
- MBC (antibiotic alone) (Staphylococcus aureus; Staphylococcus aureus 342U-116): 1 µg/mL
- MBC (antibiotic alone) (E. coli; E. coli 4104 LF): 1 µg/mL

Compound: Penicillin
- MBC (Staphylococcus aureus; Staphylococcus aureus 076U-550): <0.06 µg/mL
- MBC (Staphylococcus aureus; Staphylococcus aureus 230U-579): >10 µg/mL
- MBC (Staphylococcus aureus; Staphylococcus aureus 314U-148): >10 µg/mL
- MBC (Staphylococcus aureus; Staphylococcus aureus 342U-116): >10 µg/mL
- MBC (Staphylococcus aureus; Staphylococcus aureus 15031-1857): >10 µg/mL
- MBC (E. coli; E. coli 706U2-1081): >10 µg/mL
- MBC (E. coli; E. coli 4104 LF): >10 µg/mL
